In the supplement of paper PMC10307832:

Key:
Test in all cases: relative viability (nuclei count vs DMSO), 5 days (fraction); higher = more cells survive
Crenolanib + Foretinib = compound: CC1(COc2ccc3c(c2)ncn3-c2ccc3cccc(N4CCC(N)CC4)c3n2)COC1 [Crenolanib] + COc1cc2c(Oc3ccc(NC(=O)C4(C(=O)Nc5ccc(F)cc5)CC4)cc3F)ccnc2cc1OCCCN1CCOCC1 [Foretinib] (partner 0.25 µM)
How it was run: (§1)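 One day after seeding in 1536-well plates, lung cancer cell lines were dosed by pin tool. Dosing was either single-drug or a fixed anchor-drug dose plus five library-drug doses (not always all listed) in √10 steps. After 5 days, nuclei were stained in one fix-and-stain step and counted on 4× images, and relative viability is the nuclei count of treated wells over that of vehicle wells, given as the median of duplicate plates.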

Tivantinib + OSI-027 = compound: O=C1NC(=O)[C@@H](c2cn3c4c(cccc24)CCC3)[C@@H]1c1c[nH]c2ccccc12 [Tivantinib] + COc1cccc2cc(-c3nc([C@H]4CC[C@H](C(=O)O)CC4)n4ncnc(N)c34)[nH]c12 [OSI-027] (partner 0.5 µM)
How it was run: as §1

Tivantinib + Lapatinib = compound: O=C1NC(=O)[C@@H](c2cn3c4c(cccc24)CCC3)[C@@H]1c1c[nH]c2ccccc12 [Tivantinib] + CS(=O)(=O)CCNCc1ccc(-c2ccc3ncnc(Nc4ccc(OCc5cccc(F)c5)c(Cl)c4)c3c2)o1 [Lapatinib] (partner 2 µM)
How it was run: as §1

Tivantinib + Pemetrexed = compound: O=C1NC(=O)[C@@H](c2cn3c4c(cccc24)CCC3)[C@@H]1c1c[nH]c2ccccc12 [Tivantinib] + Nc1nc2[nH]cc(CCc3ccc(C(=O)N[C@@H](CCC(=O)O)C(=O)O)cc3)c2c(=O)[nH]1 [Pemetrexed] (partner 0.2 µM)
How it was run: as §1

Cell Line	relative viability (Crenolanib + Foretinib; first compound 0.01 µM)	relative viability (Crenolanib + Foretinib; first compound 0.03162 µM)	relative viability (Crenolanib + Foretinib; first compound 0.1 µM)	relative viability (Crenolanib + Foretinib; first compound 0.3162 µM)	relative viability (Crenolanib + Foretinib; first compound 1 µM)	relative viability (Tivantinib + OSI-027; first compound 0.01 µM)	relative viability (Tivantinib + OSI-027; first compound 0.03162 µM)	relative viability (Tivantinib + OSI-027; first compound 0.1 µM)	relative viability (Tivantinib + OSI-027; first compound 0.3162 µM)	relative viability (Tivantinib + Lapatinib; first compound 0.01 µM)	relative viability (Tivantinib + Lapatinib; first compound 0.1 µM)	relative viability (Tivantinib + Lapatinib; first compound 0.3162 µM)	relative viability (Tivantinib + Pemetrexed; first compound 0.01 µM)	relative viability (Tivantinib + Pemetrexed; first compound 0.03162 µM)	relative viability (Tivantinib + Pemetrexed; first compound 0.1 µM)	relative viability (Tivantinib + Pemetrexed; first compound 0.3162 µM)	relative viability (Tivantinib + Lapatinib; first compound 0.03162 µM)
HOP-62	1.19	1.23	1.09	1.08	1.15	0.831	0.566	0.876	0.887	1.15	0.956	1.16	0.333	0.29	0.368	0.247	–
IA-LM	1.37	1.1	1.08	1.22	1.3	–	–	–	–	0.871	0.669	0.771	–	–	–	–	0.882
LC-2-ad	1.1	1.1	0.858	0.971	0.823	0.851	0.738	0.816	0.573	1.03	0.928	1.06	0.3	0.252	0.276	0.259	0.929
LCLC-97TM1	1.01	0.867	0.958	0.979	0.971	0.44	0.473	0.428	0.36	1.04	1.04	0.889	0.148	0.165	0.157	0.191	0.852
LCLC-103H	0.947	0.88	0.874	0.826	0.622	0.471	0.425	0.41	0.414	–	–	–	0.472	0.368	0.406	0.432	–
LK-2	1.27	1.66	1.12	1.35	1.36	0.225	–	0.219	0.243	0.955	0.841	0.872	0.261	0.286	0.276	0.244	–
LOU-NH91	0.969	0.914	0.893	0.888	0.892	0.657	0.709	0.729	0.465	0.83	0.78	0.72	0.394	0.428	0.4	0.468	0.702
LU99A	0.747	0.867	0.867	0.879	0.897	0.295	0.295	0.296	0.249	0.987	0.889	0.905	0.173	0.201	0.16	0.178	1.14
LXF-289	1.02	0.971	0.942	0.989	0.977	0.77	0.724	0.761	0.858	0.925	0.858	0.968	0.925	0.501	0.896	0.925	0.861
NCI-H23	1.12	1.13	0.97	0.995	1.06	0.651	0.366	0.515	0.518	1.05	1.03	1.18	0.688	0.653	0.646	0.715	1.22
NCI-H322M	0.951	1.07	0.973	0.96	0.98	0.542	0.501	0.546	–	0.568	0.609	0.588	0.682	0.614	0.588	–	0.488
NCI-H358	0.816	0.666	0.634	0.701	0.567	0.839	0.94	0.634	0.195	0.53	0.418	0.403	0.178	0.177	0.191	0.167	0.42
NCI-H441	1.13	1.05	0.775	0.951	0.958	0.517	0.608	0.498	0.471	–	–	–	0.294	0.254	0.254	0.282	–
NCI-H460	1.02	1.06	0.938	1	0.99	0.608	0.573	0.619	0.864	0.905	0.889	0.99	0.059	0.0663	0.0596	0.0576	0.922
NCI-H520	0.671	0.89	0.651	0.724	0.746	0.318	0.221	0.261	0.261	0.893	0.638	0.795	0.695	0.716	0.631	0.652	0.822
NCI-H522	–	–	–	–	–	0.749	0.648	0.624	0.617	–	–	–	1.01	1.02	0.997	0.476	–
NCI-H727	0.915	0.975	0.835	0.893	0.809	0.781	0.484	0.515	0.468	0.824	0.802	–	–	–	–	–	0.689
NCI-H1299	1.1	1.04	1.06	1.05	1.11	–	–	–	–	0.967	0.988	0.924	–	–	–	–	0.952
NCI-H1623	0.99	0.888	0.86	0.859	0.838	0.434	0.442	0.487	–	–	–	–	–	–	–	–	–
NCI-H1648	–	–	–	–	–	0.254	0.259	0.238	–	–	–	–	–	0.67	0.722	0.486	–
NCI-H1703	0.32	0.293	0.321	0.313	0.269	–	–	–	–	1.3	1.06	1.06	–	–	–	–	0.94
NCI-H1792	–	–	–	–	–	0.777	0.685	0.595	0.547	0.91	0.822	0.964	0.965	–	0.81	0.725	0.939
NCI-H2342	1.01	1.02	1	1.2	0.816	0.63	0.597	0.585	0.532	–	–	–	0.761	0.849	0.771	0.681	–
SW 900	0.69	0.91	0.818	1.15	0.848	0.605	0.443	0.583	0.533	–	–	–	0.551	0.497	0.475	0.515	–
